# According to PubChem BioAssay (NCI):
# Where “and” joins values, the source holds several entries; their conditions need not be identical. Equal values may be shown once.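 96-well plates; 48 h exposure; 5 concentrations. Endpoints by linear interpolation between flanking doses. Not reached: highest tested concentration assigned. Abbreviation: GI50, concentration required for 50% inhibition of growth. TGI: total growth inhibition.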
# What was measured:
# Experiment in all cases: DTP human tumour cell line panel, 48 h
# [1] = system: SNB-75 CNS
# [2] = system: NCI-H23 lung
# [3] = system: OVCAR-4 ovarian
# [4] = system: SW-620 colon
# [5] = system: T-47D breast
# [6] = system: RXF 393 renal
# [7] = system: LOX IMVI melanoma
# [8] = system: HCT-116 colon
# [9] = system: A498 renal
# [10] = system: CAKI-1 renal
# [11] = system: UACC-62 melanoma
# [12] = system: HCT-15 colon
# [13] = system: MDA-N
Compound,TGI [1] [µM],TGI [2] [µM],TGI [3] [µM],TGI [4] [µM],TGI [5] [µM],TGI [6] [µM],TGI [7],TGI [8] [µM],TGI [9] [µM],TGI [10] [µM],TGI [11],TGI [12] [µM],TGI [13] [µM],GI50 [1] [µM],GI50 [2] [µM],GI50 [3] [µM],GI50 [5] [µM],GI50 [7],GI50 [9] [µM],GI50 [11] [µM]
CN(C)CCNC(=O)c1cccc2nc3c(C(=O)NCCN(C)C)cccc3nc12,8.12,5.76,2.24,12.1,34.5,4.06,1.49 µM,13.4,4.61,> 100,9.6 µM,16.5,–,–,–,–,–,–,–,–
NCCCNOCCCN,–,> 100,> 100,> 100,> 100,> 100,–,> 100,> 100,> 100,> 100 µM,> 100,> 100,–,–,–,–,–,–,–
CCSc1nc(=S)n(-c2ccccc2)c(C)c1C(C)=O,> 100,> 100,> 100,> 100,> 100,> 100,> 100 µM,> 100,> 100,> 100,> 100 µM,> 100,–,–,–,–,–,–,–,–
CCOC(=O)C(Cc1ccccc1)NC(=O)c1[nH]cnc1/N=N/N(C)C (stereo not given),> 100,> 100,> 100,> 100,–,–,> 100 µM,> 100,> 100,> 100,> 100 µM,> 100,–,–,–,–,–,–,–,–
CCOC1NC(=O)Oc2cc3ccccc3cc21 (stereo not given),> 100,> 100,> 100,> 100,> 100,> 100,> 100 µM,> 100,–,–,> 100 µM,> 100,> 100,–,–,–,–,–,–,–
O=c1[nH]nc(Nc2ccccc2)c2nnn(C3CCCCC3)c12,–,> 100,> 100,–,–,–,> 100 µM,> 100,–,> 100,–,> 100,> 100,–,–,–,–,–,–,–
Cc1ccc(S(=O)(=O)C2=c3nc4ccccc4cc3=C3C(=O)c4ccccc4C(=O)C32)cc1 (stereo not given),> 100,> 100,> 100,> 100,–,–,> 100 µM,> 100,> 100,> 100,> 100 µM,> 100,–,–,–,–,–,–,–,–
Cc1nc2ccc(F)cc2c(Cl)c1CCCl,> 100,> 100,> 100,> 100,> 100,79.9,82.8 µM,92.8,> 100,–,94.6 µM,> 100,–,–,–,–,–,–,–,–
COC(=O)CCNc1c2ccccc2nc2cccc([N+](=O)[O-])c12,0.0722,–,0.0251,–,0.466,0.00217,0.0172 µM and 0.053 µM,1.11,0.0585,–,0.00428 µM and 0.0364 µM,–,0.00136,0.0185,1.26,0.00454,0.0283,0.00367 µM and 0.0126 µM,0.0185,0.00136
